Results on eight molecules are retold here after ChEMBL document CHEMBL1201862, “PubChem BioAssay data set” (2004).

The target in data set [1] is Peroxisome proliferator-activated receptor gamma/Nuclear receptor corepressor 2 (Homo sapiens, UniProt P37231+Q9Y618). The experiment in a line: Counterscreen for NR2E3 inverse agonists: TR-FRET-based biochemical high throughput dose response assay to identify inverse agonists of the interaction between peroxisome proliferator-activated receptor gamma (PPARg) and nuclear receptor co-repressor 2 (NCOR2). It counts as functional.

Data set [2] concerns the target Peroxisome proliferator-activated receptor gamma/Nuclear receptor coactivator 1 (Homo sapiens, UniProt P37231). Put plainly: TR-FRET dose response biochemical High Throughput Screening assay for agonists of the steroid receptor coactivator 1 (SRC-1) recruitment by the peroxisome proliferator-activated receptor gamma (PPAR gamma): non-selective agonists. [Related pubchem assays (depositor defined):AID1300, AID1808, AID504735, AID631]. It counts as protein assay.

The target of data set [3] is T1, Orexin receptor type 2 (Homo sapiens, UniProt O43614).
T1 sequence (O43614 whole entry): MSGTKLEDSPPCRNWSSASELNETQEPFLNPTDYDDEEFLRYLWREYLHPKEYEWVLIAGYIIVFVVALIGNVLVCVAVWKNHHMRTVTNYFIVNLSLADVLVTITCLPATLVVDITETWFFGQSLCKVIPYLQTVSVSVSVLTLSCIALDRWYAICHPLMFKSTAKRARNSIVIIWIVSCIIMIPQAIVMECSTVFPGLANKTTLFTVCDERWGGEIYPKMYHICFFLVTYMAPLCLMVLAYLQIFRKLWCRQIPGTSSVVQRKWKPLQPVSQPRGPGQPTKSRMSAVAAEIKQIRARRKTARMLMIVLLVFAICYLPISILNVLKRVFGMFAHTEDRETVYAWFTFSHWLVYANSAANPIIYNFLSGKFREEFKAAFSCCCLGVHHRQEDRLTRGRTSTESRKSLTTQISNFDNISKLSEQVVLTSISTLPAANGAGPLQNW
Put plainly: Counterscreen assay for antagonists of the orexin 1 receptor (OX1R; HCRTR1): Homogeneous Time Resolved Fluorescence (HTRF)-based cell-based dose response assay for antagonists of the orexin 2 receptor (OX2R; HCRTR2), run by assay provider. In kind it is functional. For orientation: The purpose of a counterscreen is to sort out artefacts and off-target activity.

For data set [4], the target named is Peroxisome proliferator-activated receptor gamma/Nuclear receptor coactivator 2 (Homo sapiens, UniProt P37231). Put plainly: TR-FRET dose response biochemical High Throughput Screening assay for agonists of the steroid receptor coactivator 2 (SRC-2) recruitment by the peroxisome proliferator-activated receptor gamma (PPAR gamma): non-selective agonists. [Related pubchem assays: 1297, 1032 ]. In kind it is functional.

The nature of data set [5]: Counterscreen for antagonists of the orexin 1 receptor (OX1R; HCRTR1): Fluorescence-based cell-based high throughput dose response assay to identify antagonists of the parental CHO cell line. [Related pubchem assays (depositor defined):AID434989, AID435008, AID463079, AID485270, AID492963, AID492964, AID492965, AID493232, AID504699, AID504701]. It counts as functional.

Another data set has as its system CHO-K1. Put plainly: Counterscreen for antagonists of the orexin 1 receptor (OX1R; HCRTR1): Homogeneous time resolved fluorescence (HTRF)-based cell-based dose response assay to identify antagonists of the parental CHO-K1 cell line. [Related pubchem assays (depositor defined):AID434989, AID435008, AID463079, AID485270, AID492963, AID492964, AID492965, AID493232, AID504699, AID504701]. It counts as functional. The following applies: Cricetulus griseus.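 Further: potency for inhibition of ATP-stimulated IP1 production as antagonists.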

The target in data set [6] is Photoreceptor-specific nuclear receptor (Homo sapiens, UniProt Q9Y5X4). The experiment in a line: ligands suppressing NR2E3 nuclear receptor activity – biochemical, TR-FRET, dose response (AID 463256). It counts as functional. A general note: Time-resolved FRET reads energy transfer from a long-lived donor to a nearby acceptor.
The target in data set [7] is T2, Orexin/Hypocretin receptor type 1 (Homo sapiens, UniProt O43613).
T2 sequence (O43613 whole entry): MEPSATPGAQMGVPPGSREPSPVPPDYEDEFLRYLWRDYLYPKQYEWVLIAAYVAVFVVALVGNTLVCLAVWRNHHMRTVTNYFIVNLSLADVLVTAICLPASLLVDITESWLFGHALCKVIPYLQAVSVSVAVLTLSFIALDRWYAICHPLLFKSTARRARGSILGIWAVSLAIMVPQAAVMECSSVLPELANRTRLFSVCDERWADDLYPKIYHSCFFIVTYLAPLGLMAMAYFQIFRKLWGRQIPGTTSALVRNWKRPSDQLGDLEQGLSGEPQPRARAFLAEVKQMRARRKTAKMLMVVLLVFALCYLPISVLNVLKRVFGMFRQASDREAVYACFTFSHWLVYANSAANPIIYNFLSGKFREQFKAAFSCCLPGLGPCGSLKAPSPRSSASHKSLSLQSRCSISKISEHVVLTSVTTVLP
The experiment in a line: Fluorescence-based cell-based high throughput dose response assay for antagonists of the orexin 1 receptor (OX1R; HCRTR1). [Related pubchem assays (depositor defined):AID434989, AID435008, AID463079, AID485270, AID492963, AID492964, AID492965, AID493232, AID504717, AID504718]. It counts as functional.

In data set [8] the target is T2, Orexin/Hypocretin receptor type 1. The experiment in a line: Homogeneous Time Resolved Fluorescence (HTRF)-based cell-based high throughput dose response assay for antagonists of the orexin 1 receptor (OX1R; HCRTR1). [Related pubchem assays (depositor defined):AID434989, AID435008, AID463079, AID485270, AID492963, AID492964, AID492965, AID493232, AID504717, AID504718]. In kind it is functional.

For data set [9], the target named is Peroxisome proliferator-activated receptor gamma/Nuclear receptor coactivator 3 (Homo sapiens, UniProt P37231). Put plainly: TR-FRET dose response biochemical High Throughput Screening assay for agonists of the steroid receptor coactivator 3 (SRC-3) recruitment by the peroxisome proliferator-activated receptor gamma (PPAR gamma): non-selective agonists. [Related pubchem assays: 1301 (Confirmation screen.), 1048 (Primary screen.)]. It counts as functional.

In data set [10] the target is T1, Orexin receptor type 2. The experiment in a line: Counterscreen assay for antagonists of the orexin 1 receptor (OX1R; HCRTR1): Fluorescence-based cell-based dose response assay for antagonists of the orexin 2 receptor (OX2R; HCRTR2), run by assay provider. It counts as functional.
The nature of data set [11]: DRD fibroblast viability loss – cell-based, non-viral oncogenic, luminescence, dose response (AID 1934). It counts as functional. The following applies: Homo sapiens.
The target in another data set is T3, Cysteine protease ATG4B (Homo sapiens, UniProt Q9Y4P1).
T3 sequence (Q9Y4P1 whole entry): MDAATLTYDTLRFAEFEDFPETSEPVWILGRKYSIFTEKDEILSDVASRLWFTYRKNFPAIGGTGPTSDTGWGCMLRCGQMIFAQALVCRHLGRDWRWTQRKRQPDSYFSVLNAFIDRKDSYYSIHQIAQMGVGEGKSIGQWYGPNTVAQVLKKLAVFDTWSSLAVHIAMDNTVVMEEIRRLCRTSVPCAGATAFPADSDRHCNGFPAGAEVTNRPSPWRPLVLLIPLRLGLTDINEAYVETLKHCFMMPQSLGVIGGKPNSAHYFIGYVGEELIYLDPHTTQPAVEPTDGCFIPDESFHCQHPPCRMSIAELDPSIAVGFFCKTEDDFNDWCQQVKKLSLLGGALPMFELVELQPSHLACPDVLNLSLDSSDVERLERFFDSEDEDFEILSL
Put plainly: autophagin-1 cysteine protease inhibition – biochemical, fluorescence, set 2, dose response (AID 588584). In kind it is functional.

The next data set addresses Phospholipase A2 (Homo sapiens, UniProt P04054). Put plainly: phospholipase A2 activity inhibition – biochemical, set 2, counter-screen for ATG4B inhibitor project, dose response (AID 588586). In kind it is functional.
In data set [12] the test system is BJ. Put plainly: BJ-TERT-LT-ST fibroblast viability loss – cell-based, RAS-independent, luminescence, dose response (AID 1935).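 Further: BJ fibroblasts immortalized with TERT plus LT and ST oncogenes.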 In kind it is functional. The following applies: Homo sapiens.
Data set [13] relates to BJ. The experiment in a line: cells. It counts as functional, cell-based. The following applies: Homo sapiens.
For data set [14], the system named is BJ. Put plainly: BJ-TERT fibroblast viability loss – cell-based, RAS-independent, luminescence, dose response (AID 1933). It counts as functional. The following applies: Homo sapiens.
The next data set has as its target CAAX prenyl protease 1 (Saccharomyces cerevisiae S288c, UniProt P47154). Put plainly: yeast CAAX protease Ste24 inhibition – biochemical, S. cerevisiae, plate reader, cherry-pick, dose response (AID 488815).
Data set [15] addresses T4, Cytochrome P450 2C9 (Homo sapiens, UniProt P11712).
In data set [16] the target is T4, Cytochrome P450 2C9. The source holds these as a separate data set.
For a further data set, the target named is Cytochrome P450 2D6 (Homo sapiens, UniProt P10635).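 Further: CYP2D6 member of a cytochrome P450 panel assay.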
In a further data set the target is Cytochrome P450 3A4 (Homo sapiens, UniProt P08684).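 Further: CYP3A4 tested as one member of a cytochrome P450 panel screen.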

A word on the IC50: it is the concentration that inhibits the measured activity by half. As usually defined, the EC50 is the concentration giving half of the maximal effect. The AC50 is the midpoint of the concentration-response curve, whichever way the signal moves.

The source made the active and inactive calls.

T4 sequence (P11712 whole entry): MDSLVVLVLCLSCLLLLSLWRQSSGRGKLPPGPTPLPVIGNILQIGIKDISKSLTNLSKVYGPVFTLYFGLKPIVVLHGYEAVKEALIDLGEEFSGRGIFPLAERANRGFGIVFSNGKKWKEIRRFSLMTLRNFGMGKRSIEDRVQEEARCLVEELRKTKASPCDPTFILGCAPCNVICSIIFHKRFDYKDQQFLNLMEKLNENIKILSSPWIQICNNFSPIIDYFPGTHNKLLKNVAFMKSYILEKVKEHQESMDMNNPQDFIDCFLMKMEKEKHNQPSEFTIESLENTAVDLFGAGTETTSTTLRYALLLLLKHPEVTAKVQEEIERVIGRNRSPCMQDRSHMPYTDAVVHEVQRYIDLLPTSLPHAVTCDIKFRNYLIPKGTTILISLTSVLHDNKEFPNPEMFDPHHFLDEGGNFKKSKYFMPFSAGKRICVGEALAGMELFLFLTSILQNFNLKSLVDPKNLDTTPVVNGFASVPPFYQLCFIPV
Chain of Cytochrome P450 2D6 (P10635 whole entry): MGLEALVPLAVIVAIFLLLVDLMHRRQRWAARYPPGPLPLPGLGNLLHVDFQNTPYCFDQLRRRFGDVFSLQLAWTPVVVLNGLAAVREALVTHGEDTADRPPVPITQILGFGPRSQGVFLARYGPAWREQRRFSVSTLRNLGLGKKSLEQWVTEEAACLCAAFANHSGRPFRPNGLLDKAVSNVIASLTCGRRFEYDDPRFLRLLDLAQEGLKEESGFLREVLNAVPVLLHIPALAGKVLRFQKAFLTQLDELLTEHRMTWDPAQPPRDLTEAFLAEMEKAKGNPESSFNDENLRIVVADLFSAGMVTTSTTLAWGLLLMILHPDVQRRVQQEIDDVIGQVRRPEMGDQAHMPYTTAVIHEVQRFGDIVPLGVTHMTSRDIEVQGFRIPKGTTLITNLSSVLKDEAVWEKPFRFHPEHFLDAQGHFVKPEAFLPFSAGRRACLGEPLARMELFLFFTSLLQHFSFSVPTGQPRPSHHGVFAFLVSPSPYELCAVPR
Chain of CAAX prenyl protease 1 (P47154 whole entry): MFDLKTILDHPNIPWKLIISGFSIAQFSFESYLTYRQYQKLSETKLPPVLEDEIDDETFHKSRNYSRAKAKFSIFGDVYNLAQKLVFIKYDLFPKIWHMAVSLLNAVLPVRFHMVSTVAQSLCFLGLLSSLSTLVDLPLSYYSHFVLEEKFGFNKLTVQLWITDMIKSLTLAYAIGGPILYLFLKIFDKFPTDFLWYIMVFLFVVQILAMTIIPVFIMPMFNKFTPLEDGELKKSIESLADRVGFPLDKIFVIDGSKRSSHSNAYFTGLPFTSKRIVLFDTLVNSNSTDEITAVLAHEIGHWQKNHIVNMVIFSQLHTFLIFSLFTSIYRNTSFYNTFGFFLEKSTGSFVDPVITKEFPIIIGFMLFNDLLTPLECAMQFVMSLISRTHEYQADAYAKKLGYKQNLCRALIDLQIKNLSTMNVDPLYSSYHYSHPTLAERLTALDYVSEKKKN
Chain of Peroxisome proliferator-activated receptor gamma/Nuclear receptor coactivator 1 (P37231 whole entry): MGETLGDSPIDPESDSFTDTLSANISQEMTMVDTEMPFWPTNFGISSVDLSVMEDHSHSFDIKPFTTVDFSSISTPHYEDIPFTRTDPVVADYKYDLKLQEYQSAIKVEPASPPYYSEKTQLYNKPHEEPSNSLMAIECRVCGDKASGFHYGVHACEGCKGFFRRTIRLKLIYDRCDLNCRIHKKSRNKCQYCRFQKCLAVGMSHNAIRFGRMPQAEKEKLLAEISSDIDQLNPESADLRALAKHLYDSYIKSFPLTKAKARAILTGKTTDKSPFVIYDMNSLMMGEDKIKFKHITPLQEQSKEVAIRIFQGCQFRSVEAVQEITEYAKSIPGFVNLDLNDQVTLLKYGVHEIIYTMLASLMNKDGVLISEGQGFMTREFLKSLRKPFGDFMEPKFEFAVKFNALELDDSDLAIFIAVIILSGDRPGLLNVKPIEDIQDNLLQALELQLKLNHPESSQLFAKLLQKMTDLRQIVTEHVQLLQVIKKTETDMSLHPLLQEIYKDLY
Chain of Peroxisome proliferator-activated receptor gamma/Nuclear receptor coactivator 1 (Q15788 whole entry, further chain): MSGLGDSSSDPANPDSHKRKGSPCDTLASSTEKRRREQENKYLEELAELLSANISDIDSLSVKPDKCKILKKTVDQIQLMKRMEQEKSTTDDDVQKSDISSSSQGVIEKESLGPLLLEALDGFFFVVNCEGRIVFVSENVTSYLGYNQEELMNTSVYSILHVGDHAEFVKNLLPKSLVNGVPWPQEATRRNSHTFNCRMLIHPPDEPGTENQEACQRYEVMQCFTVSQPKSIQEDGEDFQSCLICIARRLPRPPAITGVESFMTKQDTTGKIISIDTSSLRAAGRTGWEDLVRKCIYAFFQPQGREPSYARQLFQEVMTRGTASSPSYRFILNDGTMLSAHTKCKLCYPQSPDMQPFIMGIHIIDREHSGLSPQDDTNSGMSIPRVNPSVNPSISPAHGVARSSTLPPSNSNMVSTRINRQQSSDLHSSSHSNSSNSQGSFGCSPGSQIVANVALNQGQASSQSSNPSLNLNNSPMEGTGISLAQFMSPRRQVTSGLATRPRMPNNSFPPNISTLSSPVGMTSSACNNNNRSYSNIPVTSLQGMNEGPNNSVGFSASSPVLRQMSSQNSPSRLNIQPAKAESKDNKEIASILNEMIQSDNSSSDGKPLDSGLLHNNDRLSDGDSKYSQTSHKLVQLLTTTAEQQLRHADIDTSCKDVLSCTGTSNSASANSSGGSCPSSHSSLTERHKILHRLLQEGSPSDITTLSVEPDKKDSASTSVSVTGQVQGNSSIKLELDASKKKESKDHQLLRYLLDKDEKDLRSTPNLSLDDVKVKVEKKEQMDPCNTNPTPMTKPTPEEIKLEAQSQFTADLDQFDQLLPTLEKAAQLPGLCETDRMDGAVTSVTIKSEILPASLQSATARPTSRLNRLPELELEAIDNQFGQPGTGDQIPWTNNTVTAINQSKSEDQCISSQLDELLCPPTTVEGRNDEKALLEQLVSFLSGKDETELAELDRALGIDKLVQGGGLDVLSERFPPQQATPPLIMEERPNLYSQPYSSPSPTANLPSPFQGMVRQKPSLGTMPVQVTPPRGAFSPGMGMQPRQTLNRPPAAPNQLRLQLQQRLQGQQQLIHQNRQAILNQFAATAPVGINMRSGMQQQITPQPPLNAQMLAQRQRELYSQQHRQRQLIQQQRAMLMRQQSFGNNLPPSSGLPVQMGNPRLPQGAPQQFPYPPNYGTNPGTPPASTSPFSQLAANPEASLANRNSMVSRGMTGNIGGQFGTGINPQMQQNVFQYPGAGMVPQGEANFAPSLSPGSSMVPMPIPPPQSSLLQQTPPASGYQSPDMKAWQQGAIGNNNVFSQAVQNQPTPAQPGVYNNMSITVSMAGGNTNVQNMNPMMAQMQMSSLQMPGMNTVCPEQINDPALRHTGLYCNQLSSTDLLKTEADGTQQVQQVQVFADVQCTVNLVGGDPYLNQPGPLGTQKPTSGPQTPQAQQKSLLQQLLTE
Chain of Phospholipase A2 (P04054 whole entry): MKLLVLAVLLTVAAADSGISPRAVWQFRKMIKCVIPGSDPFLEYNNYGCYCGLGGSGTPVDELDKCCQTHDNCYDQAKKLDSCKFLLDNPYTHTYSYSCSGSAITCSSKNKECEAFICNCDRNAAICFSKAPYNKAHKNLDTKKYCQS
Chain of Cytochrome P450 3A4 (P08684 whole entry): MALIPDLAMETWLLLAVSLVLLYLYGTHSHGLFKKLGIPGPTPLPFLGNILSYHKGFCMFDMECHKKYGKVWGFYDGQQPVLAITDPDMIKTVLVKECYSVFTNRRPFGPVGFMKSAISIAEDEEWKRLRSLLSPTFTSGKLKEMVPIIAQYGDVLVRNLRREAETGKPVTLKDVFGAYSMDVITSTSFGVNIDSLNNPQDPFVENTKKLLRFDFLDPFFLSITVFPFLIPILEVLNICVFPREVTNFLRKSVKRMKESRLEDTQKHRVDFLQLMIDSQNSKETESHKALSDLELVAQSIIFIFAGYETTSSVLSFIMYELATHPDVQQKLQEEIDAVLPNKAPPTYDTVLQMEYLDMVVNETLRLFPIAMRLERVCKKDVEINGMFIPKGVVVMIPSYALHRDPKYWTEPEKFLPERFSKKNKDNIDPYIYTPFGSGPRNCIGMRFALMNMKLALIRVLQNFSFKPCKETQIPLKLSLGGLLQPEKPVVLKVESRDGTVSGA
Chain of Photoreceptor-specific nuclear receptor (Q9Y5X4 whole entry): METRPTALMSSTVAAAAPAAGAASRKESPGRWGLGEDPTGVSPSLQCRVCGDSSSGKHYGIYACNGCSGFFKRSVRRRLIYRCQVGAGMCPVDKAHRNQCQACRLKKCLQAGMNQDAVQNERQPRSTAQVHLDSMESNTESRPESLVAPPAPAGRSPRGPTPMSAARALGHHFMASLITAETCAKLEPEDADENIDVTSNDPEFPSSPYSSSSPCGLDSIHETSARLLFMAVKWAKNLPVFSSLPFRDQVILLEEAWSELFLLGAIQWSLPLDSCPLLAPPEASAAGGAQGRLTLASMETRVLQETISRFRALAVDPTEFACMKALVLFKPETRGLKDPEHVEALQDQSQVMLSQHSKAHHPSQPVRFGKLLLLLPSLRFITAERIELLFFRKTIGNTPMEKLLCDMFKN

As to `NS(=O)(=O)c1ccc(CNC(=O)c2cc(-c3ccccn3)nc3ccc(Cl)cc23)cc1`, the IC50 was > 39.9 µM (not active) in data set [1]; > 50 µM (inactive) at Orexin receptor type 2 [3]; > 49.7 µM (inactive) in data set [5]; > 66.2 µM (inactive) with CHO-K1; > 4.43 µM (active) in data set [6]; > 49.7 µM (inactive) in [7]. In addition, the IC50 in [8] is 2.46 µM (active); at Orexin receptor type 2 [10], 30.1 µM (inactive). The EC50 in data set [2] is 6.13 µM (active); in data set [4], 5.82 µM (active); in [9], 17.6 µM (not active).

As to `CC1=Nc2cc(C(=O)NCc3ccco3)ccc2Sc2ccc(C)cc21`, the EC50 in data set [11] was 2.73 µM (inconclusive); in the data set on BJ [12], 1.95 µM (active); with BJ [13] it was 2.76 µM (active); with BJ [14] it was 2.33 µM (inconclusive). For the same molecule, the IC50 on Cysteine protease ATG4B is 77.5 µM (inactive); on Phospholipase A2 it was 74.1 µM (inactive).

Turning to `Cc1cc(C)cc(N2CC(=O)C(c3nc(O)c4ccccc4n3)=C2N)c1`, on CAAX prenyl protease 1, the AC50 is 14.7 µM (active).

`CCOc1ccccc1Oc1coc2cc(OC)ccc2c1=O`: at Cytochrome P450 2C9 [15], the AC50 entry was “inconclusive”.

For the molecule `CC(C)c1ccc(C(O)(C(=O)O)c2ccc(C(C)C)cc2)cc1`, the half-maximal activity concentration (AC50) was 3.98 µM (inconclusive) at Cytochrome P450 2C9 [16] and “inconclusive” at Cytochrome P450 2D6.

As to `COc1ccccc1C(=O)Nc1cc2c(ccc3ccccc32)oc1=O`, the AC50 result at Cytochrome P450 2C9 [15] was “inconclusive”.

Consider `COc1cc(OC)cc(-c2ncc3ccccn23)c1`, for which the half-maximal activity concentration (AC50) at CAAX prenyl protease 1 was 5.47 µM (active).

On to `Br/C(=N\N=c1/nn[nH][nH]1)c1ccncc1`, for which the AC50 at Cytochrome P450 3A4 was 5.01 µM (inconclusive); on Cytochrome P450 2D6 it was “inconclusive”.
